Assay results: patent US5872115A, “2-ureido-benzamide derivatives” (Grelan Pharmaceutical Co. Ltd., priority 1995, dated 1999)
Read-outs that look alike come from different tables or passages of the source.

Key:
THP-1 microsomal ACAT [1] = biological target: T1, THP-1 microsomal ACAT (Homo sapiens, UniProt P35610); test: In vitro test using THP-1 microsome (ACAT inhibition); assay type: biochemical
T1 construct: ACAT enzyme fraction was prepared from microsome of human leukemia THP-1 cell; endogenous in cells; host or cells: THP-1 (human leukemia), microsomes
T1 sequence (P35610 1-550): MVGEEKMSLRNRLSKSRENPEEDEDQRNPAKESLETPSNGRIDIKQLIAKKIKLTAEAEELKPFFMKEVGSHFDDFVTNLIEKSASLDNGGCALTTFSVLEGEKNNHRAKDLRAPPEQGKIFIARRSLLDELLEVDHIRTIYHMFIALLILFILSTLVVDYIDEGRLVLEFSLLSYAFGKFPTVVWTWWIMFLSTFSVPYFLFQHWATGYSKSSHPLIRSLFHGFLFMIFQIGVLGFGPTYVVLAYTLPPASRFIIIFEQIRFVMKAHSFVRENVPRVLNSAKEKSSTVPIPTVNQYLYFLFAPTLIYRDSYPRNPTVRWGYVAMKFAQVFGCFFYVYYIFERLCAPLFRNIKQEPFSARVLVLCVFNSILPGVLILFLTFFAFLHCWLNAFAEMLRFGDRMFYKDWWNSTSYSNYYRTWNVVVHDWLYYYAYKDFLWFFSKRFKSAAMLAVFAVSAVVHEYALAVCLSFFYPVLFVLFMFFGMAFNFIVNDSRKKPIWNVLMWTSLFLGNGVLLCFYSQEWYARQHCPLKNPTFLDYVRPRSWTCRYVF
Protocol: (4) In Vitro Test Using THP-1 Microsome
Then, the reaction was initiated by the addition of 5 nmoles of labeled [^14 C] oleoyl-CoA dissolved in 20 μl of said phosphate buffer solution containing BSA and the reaction was stopped by the addition of 20 μl of 2N HCl after 10 minutes. [^14 C] cholesterol-oleate formed was separated by thin-layer chromatography and the radioactivity was counted with liquid scintillation counter.
ACAT inhibitory activities of the test compounds were shown as IC50 values.

THP-1 microsomal ACAT [2] = biological target: T1, THP-1 microsomal ACAT; test: Bioavailability assessment of ACAT inhibitors by their ex vivo activity (serum of dosed mice on THP-1 microsomal ACAT); assay type: in vivo
Protocol: (5) Bioavailability Assessment of ACAT Inhibitors by Their <<ex vivo>> Activity
[…] Blood samples were collected 0.5, 1, 1.5, 2, 6 hour postdose. Serum were harvested after gentle centrifugation and stored at -20.
The following day, 10 μl serum were preincubated at 37 for 5 minutes with 20 μl of THP-1 microsomal ACAT and then incubated 10 minutes with 20 μl of radiolabeled oleoyl-CoA as described above in method (4). The serum is used instead of the drug solution.
ACAT inhibitory activities of the test compounds were shown as maximum inhibition percentages (Imax).

[3] = female mice, 30 mg/kg per os, 1% CMC-Na 0.2% Tween 80, maximum inhibition by serum
[4] = THP-1 microsome, read-out: IC50 THP1 microsome
[5] = tested at 100 mg/kg in a suspension of 0.5% CMC-Na (footnote *)

Structure (SMILES)	Imax Ex vivo (THP-1 microsomal ACAT [2]; [3]) [%]	IC50 (THP-1 microsomal ACAT [1]; [4]) [nM]	Imax Ex vivo (THP-1 microsomal ACAT [2]; [5]) [%]	IC50 (THP-1 microsomal ACAT [1]) [nM]
CCCCNC(=O)Nc1ccc(OC(=O)NCCCC)cc1C(=O)NCC1CCN(C(c2ccccc2)c2ccccc2)CC1 [77 (b), 5-n-butylcarbamyloxy-2-(N'-n-butylureido)-N-[(1-diphenylmethylpiperidin-4-yl)methyl]benzamide]	41.37			50
CCCCNC(=O)Nc1ccc([S+](C)[O-])cc1C(=O)NCC1CCN(C(c2ccccc2)c2ccccc2)CC1 (stereo not shown) [111 (a)]	62.01	100		
CCCCNC(=O)Nc1ccc(-n2ccnc2)cc1C(=O)NCC1CCN(C(c2ccccc2)c2ccccc2)CC1 [Example 64, 2-(N'-n-Butylureido)-5-(imidazol-1-yl)-N-[(1-diphenylmethylpiperidin-4-yl)-methyl]-benzamide]	43.14	200		
CCCCCCCNC(=O)Nc1ccc(-n2ccnc2)cc1C(=O)NCC1CCN(C(c2ccccc2)c2ccccc2)CC1 [Example 79, 2(N'-n-Heptylureido)-5-(imidazol-1-yl)-N-[(1-diphenylmethylpiperidin-4-yl)methyl]-benzamide]		220	63.26	
CCCCCCCCCCNC(=O)Nc1ccc(N(C)C)cc1C(=O)NCC1CCN(C(c2ccccc2)c2ccccc2)CC1 [Example 80, 2-(N'-n-Decylureido)-5-dimethylamino-N-[(1-diphenylmethylpiperidin-4-yl)methyl]-benzamide]		170		
CCCCCCCNC(=O)Nc1ccc(N2CCOCC2)cc1C(=O)NCC1CCN(C(c2ccccc2)c2ccccc2)CC1 [Example 82, 2-(N'-n-Heptylureido)-5-(morpholin-4-yl)-N-[(1-diphenylmethylpiperidin-4-yl)methyl]-benzamide]	50.15	100		
CCCCCCCNC(=O)Nc1ccc(N2CCCCC2)cc1C(=O)NCC1CCN(C(c2ccccc2)c2ccccc2)CC1 [Example 83, 2-(N'-n-Heptylureido)-5-(piperidin-1-yl)-N-[(1-diphenylmethylpiperidin-4-yl)methyl]benzamide]		270		
CCCCCCCNC(=O)Nc1ccc(-n2cccn2)cc1C(=O)NCC1CCN(C(c2ccccc2)c2ccccc2)CC1 [Example 84, 2-(N'-n-Heptylureido)-5-(pyrazol-1-yl)-N-[(1-diphenylmethylpiperidin-4-yl)-methyl]-benzamide]	5.75	100		
CCCCCCCNC(=O)Nc1ccc(N(CC)CC)cc1C(=O)NCC1CCN(C(c2ccccc2)c2ccccc2)CC1 [Example 87, 5-Diethylamino-2-(N'-n-heptylureido)-N-[(1-diphenylmethylpiperidin-4-yl)-methyl]-benzamide]		200		
CCCCCCCNC(=O)Nc1ccc(N(C)C)cc1C(=O)NCC1CCN(C(c2ccc(Cl)cc2)c2ccc(Cl)cc2)CC1 [Example 92, 2-(N'-n-Heptylureido)-5-dimethylamino-N-[[1-bis(4-chlorophenyl)methylpiperidin-4-yl]-methyl]benzamide]		300		
CCCCCCCNC(=O)Nc1ccc(N(C)C)cc1C(=O)NCC1CCN(C(c2ccc(OC)cc2)c2ccc(OC)cc2)CC1 [Example 94, 2-(N'-n-Heptylureido)-5-dimethylamino-N-[[1-bis(4-methoxyphenyl)methylpiperidin-4yl]methyl]benzamide]	28.35	100		
COCCCNC(=O)Nc1ccc(N2CCOCC2)cc1C(=O)NCC1CCN(C(c2ccccc2)c2ccccc2)CC1 [Example 104, 2-(N'-3-Methoxypropylureido)-5-(morpholin-4-yl)-N-[(1-diphenylmethylpiperidin-4-yl)methyl]benzamide]		100		
O=C(NCC1CC1)Nc1ccc(N2CCOCC2)cc1C(=O)NCC1CCN(C(c2ccccc2)c2ccccc2)CC1 [Example 105, 2-(N'-Cyclopropylmethylureido)-5-(morpholin-4-yl)-N-[(1-diphenylmethylpiperidin-4-yl)methyl]benzamide]		100		
CCCCCCCNC(=O)Nc1ccc(C(C)C)cc1C(=O)NCC1CCN(C(c2ccccc2)c2ccccc2)CC1 [Example 106, 2-(N'-n-Heptylureido)-5-isopropyl-N-[(1-diphenylmethylpiperidin-4-yl)methyl]benzamide]		220		
CCCCNC(=O)Nc1ccc(N)cc1C(=O)NCC1CCN(C(c2ccccc2)c2ccccc2)CC1 [Example 109, 5-Amino-2-(N'-n-butylureido)-N-[(1-diphenylmethylpiperidin-4-yl)methyl]-benzamide]		400		
CCCCNC(=O)Nc1ccc(NC)cc1C(=O)NCC1CCN(C(c2ccccc2)c2ccccc2)CC1 [Example 112, 5-Methylamino-2-(N'-n-butylureido)-N-[(1-diphenylmethylpiperidin-4-yl)methyl]benzamide]		200		

Now from value to molecule, other results behind:

Imax Ex vivo (THP-1 microsomal ACAT [2]; [3]) [%]	IC50 (THP-1 microsomal ACAT [1]; [4]) [nM]	Imax Ex vivo (THP-1 microsomal ACAT [2]; [5]) [%]	Structure (SMILES)	IC50 (THP-1 microsomal ACAT [1]) [nM]
62.57	30		CCCCNC(=O)Nc1ccc(N(CC)CC)cc1C(=O)NCC1CCN(C(c2ccccc2)c2ccccc2)CC1 [Example 62, 2-(N'-n-Butylureido)-5-diethylamino-N-[(1-diphenylmethylpiperidin-4-yl)-methyl]-benzamide]	
37.43	60		CCCCNC(=O)Nc1ccc(N2CCCC2)cc1C(=O)NCC1CCN(C(c2ccccc2)c2ccccc2)CC1 [Example 65, 2-(N'-n-Butylureido)-5-(pyrrolidin-1-yl)-N-[(1-diphenylmethylpiperidin-4-yl)methyl]-benzamide]	
51.97	50		CCCCNC(=O)Nc1ccc(OC)cc1C(=O)NCC1CCN(C(c2ccccc2)c2ccccc2)CC1 [Example 67, 2-(N'-Butylureido)-5-methoxy-N-[(1-diphenylmethylpiperidin-4-yl)methyl]-benzamide]	
50.51	30		CCCCNC(=O)Nc1ccc(OCC)cc1C(=O)NCC1CCN(C(c2ccccc2)c2ccccc2)CC1 [Example 68, 2-(N'-n-Butylureido)-5-ethoxy-N-[(1-diphenylmethylpiperidin-4-yl)methyl]-benzamide]	
40.11	30		CCCCNC(=O)Nc1ccc(OCC2CC2)cc1C(=O)NCC1CCN(C(c2ccccc2)c2ccccc2)CC1 [Example 69, 2-(N'-n-Butylureido)-5-cyclopropylmethoxy-N-[(1-diphenylmethylpiperidin-4-yl)methyl]-benzamide]	
38.17	20		CCCCNC(=O)Nc1ccc(SC)cc1C(=O)NCC1CCN(C(c2ccccc2)c2ccccc2)CC1 [Example 73]	
	40	74.11	CCCCCCCNC(=O)Nc1ccc(OC)cc1C(=O)NCC1CCN(C(c2ccccc2)c2ccccc2)CC1 [Example 81, 2-(N'-n-Heptylureido)-5-methoxy-N-[(1-diphenylmethylpiperidin-4-yl)methyl]benzamide]	
11.33	60		CCCCCCCNC(=O)Nc1ccc(N2CCCC2)cc1C(=O)NCC1CCN(C(c2ccccc2)c2ccccc2)CC1 [Example 85, 2-(N'-n-Heptylureido)-5-(pyrrolidin-1-yl)-N-[(1-diphenylmethylpiperidin-4-yl)methyl]-benzamide]	
	40		CCCCCCCNC(=O)Nc1ccc(OCC)cc1C(=O)NCC1CCN(C(c2ccccc2)c2ccccc2)CC1 [Example 86, 5-Ethoxy-2-(N'-n-heptylureido)-N-[(1-diphenylmethylpiperidin-4-yl)methyl]-benzamide]	
	60		CCCCCCCNC(=O)Nc1ccc(N(C)C)cc1C(=O)NCC1CCCN(C(c2ccccc2)c2ccccc2)C1 (stereo not shown) [Example 89, 2-(N'-n-Heptylureido)-5-dimethylamino-N-[(1-diphenylmethylpiperidin-3-yl)methyl]-benzamide]	
61.47	80		CCCCCCCNC(=O)Nc1ccc(N(C)C(C)=O)cc1C(=O)NCC1CCN(C(c2ccccc2)c2ccccc2)CC1 [Example 91, 5-(N-Acetyl-N-methyl)amino-2-(N'-n-heptylureido)-N-[(1-diphenylmethylpiperidin-4-yl)-methyl]benzamide]	
24.17	40		CCCCCCCNC(=O)Nc1ccc(N(C)C)cc1C(=O)NCC1CCN(C(c2ccc(F)cc2)c2ccc(F)cc2)CC1 [Example 93, 2-(N'-n-Heptylureido)-5-dimethylamino-N-[[1-bis(4-fluorophenyl)methylpiperidin-4-yl]-methyl]benzamide]	
	90		COCCCNC(=O)Nc1ccc(N(C)C)cc1C(=O)NCC1CCN(C(c2ccccc2)c2ccccc2)CC1 [Example 103, 2-(N'-3-Methoxypropylureido)-5dimethylamino-N-[(1-diphenylmethylpiperidin-4-yl)methyl]benzamide]	
